Test results as given in patent US20200113902A1, “COMPOSITIONS AND METHODS FOR TREATING CANCERS WITH COVALENT INHIBITORS OF CYCLIN-DEPENDENT KINASE 7 (CDK7)” (Syros Pharmaceuticals, Inc., priority 2017, published 2020).

How the values were obtained:
[1] = test system: HCC70 cells; test: Growth rate (GR) inhibition, Cell Titer Glo 2.0, HCC70; assay type: cell-based, human; conditions: concentrations greater than 100 nM, 72 hours
Procedure: (§1) To determine the effect of Compound 1 on the growth of TNBC cancer cells, four different human TNBC cell lines were used—HCC70, MDA-MB-468, MDA-MB-453 and CAL120. Cells from each cell line were plated separately at 50,000 cells/mL (100 uL per well) in a black-walled 96 well plate and allowed to adhere overnight. In parallel, cells were plated in a separate day 0 plate to measure the number of cells present upon compound addition. The next day, Compound 1 was added to the wells with an HP 300e compound dispenser in a 10-point serial dilution and cells incubated for 72 hours. On the same day Cell Titer Glo 2.0 reagent was added to the day 0 plate, and the luminescence measured with an Envision plate reader per manufacture protocol. After 72 hours Cell Titer Glo 2.0 reagent was added to the plates and the luminescence measured. GR curves were calculated as follows: […]
(§2) wherein x(c) is the Compound 1 treatment luminescence); x0 is the average Day 0 luminescence); and xctrl is the average DMSO treatment luminescence, and graphed using Graph Pad Prism. A GR value of 1 indicates no growth inhibition; GR values between 0 and 1 indicate partial growth inhibition; a GR value of 0 indicates cytostasis (no change from baseline); GR values less than 0 indicate cytotoxicity (cell number less than baseline); a GR value of −1 indicates complete cell loss.

[2] = test system: MDA-MB-468 cells; test: Growth rate (GR) inhibition, Cell Titer Glo 2.0, MDA-MB-468; assay type: cell-based, human; conditions: concentrations greater than 100 nM, 72 hours
Procedure: as §1, §2

[3] = test system: HCC70 xenografts; test: Subcutaneous HCC70 xenograft, tumor volume; assay type: in vivo, mouse; conditions: 40 mg/kg i.v. twice weekly (BIW), vehicle: increase in tumor volume
Procedure: Subcutaneous HCC70 xenografts were established in BALC/c nude mice at ChemPartner (Shanghai, China). Each mouse was inoculated subcutaneously in the right flank with 5×10^6 HCC70 cells (ATCC, CAT #: CRL-2315) in 0.2 ml of a 1:1 mixture of base medium and Matrigel. Tumor sizes were measured in two dimensions using a caliper, and the volumes were expressed in mm^3 using the formula: V=0.5 a×b^2 where a and b are the longest and shortest diameters of the tumor, respectively. Compound 1 treatment was started when the average tumor size reached 181 mm^3.
Compound 1 was formulated in w/v 20% Captisol (pH 4-6) and administered by i.v. twice weekly (BIW) at a final dose of 40 mg/kg in a 10 ml/kg volume. Mice in the vehicle arm were given the same dosing schedules, volumes, and formulations, but lacking Compound 1. Tumor volumes were measured twice weekly over the course of the study.

[4] = test system: BR5013 xenografts; test: TNBC patient-derived xenograft BR5013, tumor volume; assay type: in vivo, mouse; conditions: 40 mg/kg or 30 mg/kg i.v. BIW
Procedure: (§3) Patient-derived xenograft (PDX) models from TNBC patients (BR5010, BR5013, BR5015, and BR5023) were established in NOD-SCID mice at Crown Bioscience (San Diego, USA). Cryo vials containing tumor cells were thawed and prepared for injection into mice. Cells were washed in PBS, counted, and resuspended in cold PBS at a concentration of 50,000-100,000 viable cells/100 ul. Cell suspensions were mixed with an equal volume of Cultrex ECM and kept on ice during transport to the vivarium. Cells were prepared for injections by withdrawing ECM-Cell mixture into a chilled slip-tip syringe fitted with a 26G 7/8 (0.5 mm×22 mm) needle. The filled syringes were kept on ice to avoid the solidification of ECM. Each mouse was inoculated subcutaneously in the right flank with 200 uL of the cell suspension. Tumor sizes were measured in two dimensions using a caliper, and the volumes were expressed in mm^3 using the formula: V=0.5 a×b^2, where a and b are the longest and shortest diameters of the tumor, respectively. Compound 1 treatment was started when the average tumor size reached 150-200 mm^3.
(§4) Compound 1 was formulated in w/v 20% Captisol (pH 4-6) and administered by i.v. twice weekly (BIW) at a final dose of 40 mg/kg or 30 mg/kg in a 10 ml/kg volume. Tumor volumes were measured twice weekly over the course of the study. […]

[5] = test system: OV15398 xenograft; test: Ovarian PDX OV15398, tumor volume; assay type: in vivo, mouse; conditions: OV15398 (very low CDKN2A); 40 or 30 mg/kg i.v. BIW
Procedure: as §3, with “from ovarian carcinoma” for “from TNBC”, “patients (OV5387, OV14702, OV14972, OV15398, OV15576, OV15696, OV15612, OV15631)” for “patients (BR5010, BR5013, BR5015, and BR5023)”, “in mm3” for “in mm^3”, “V=0.5 a×b^2” for “V=0.5 a×b^2,”
as §4

[6] = test system: leukemic cells; conditions: leukemic vs non-malignant cells; previously shown; cited from earlier work
[7] = test system: AML xenografts; conditions: previously shown; cited from earlier work

## CN(C)C/C=C/C(=O)Nc1ccc(C(=O)N[C@@]2(C)CCC[C@@H](Nc3ncc(Cl)c(-c4c[nH]c5ccccc45)n3)C2)nc1 [Compound 1, N-((1S,3R)-3-(5-chloro-4-(1H-indol-3-yl)pyrimidin-2-ylamino)-1-methylcyclohexyl)-5-((E)-4-(dimethylamino)but-2-enamido)picolinamide]
[1]
  Inhibition of growth (GR curve): almost complete inhibition of growth
[2]
  Inhibition of growth (GR curve): almost complete inhibition of growth
[3]
  Tumor volume: reduction in tumor volume
[4]
  Tumor growth vs untreated historical samples: little inhibitory effect on tumor growth
[5]
  Response to treatment (tumor growth): responded
[6]
  Induction of apoptosis in vitro: selectively induce apoptosis in leukemic cells relative to non-malignant cells
[7]
  Anti-tumor activity: anti-tumor activity
